Data: patent US20080058352A1, “Fungicidal Mixtures” (priority 2004, published 2008)

Tested on: Pyrenophora teres
Experiment: activity against net blotch of barley caused by Pyrenophora teres, 5 day protective application
Type: in vivo, Pyrenophora [syn. Drechslera] teres on barley seedlings
Conditions: individual active compound, untreated control 90% infection
Procedure: The active compounds, separately or jointly, were prepared as a stock solution comprising 25 mg of active compound which was made up to 10 ml using a mixture of acetone and/or DMSO and the emulsifier Uniperol® EL (wetting agent having an emulsifying and dispersing action based on ethoxylated alkylphenols) in a ratio by volume of solvent/emulsifier of 99:1. The mixture was then made up to 100 ml with water. This stock solution was diluted with the solvent/emulsifier/water mixture described to give the concentration of active compound stated below. Alternatively, the active compounds were employed as a commercial finished formulation and diluted with water to the stated concentration of active compound.
Use example—activity against net blotch of barley caused by Pyrenophora teres, 5 day protective application.
Leaves of potted barley seedlings were sprayed to runoff point with an aqueous suspension having the concentration of active compound stated below. 5 days after the application, the test plants were inoculated with an aqueous spore suspension of Pyrenophora [syn. Drechslera] teres, the net blotch pathogen. The test plants were then placed in a greenhouse at temperatures between 20 and 24° C. and 95 to 100% relative atmospheric humidity. After 6 days, the extent of the development of the disease was determined visually in % infection of the total leaf area.
The visually determined percentages of infected leaf areas were converted into efficacies in % of the untreated control:
The efficacy (E) is calculated as follows using Abbot's formula:
E=(1−α/β)·100 • α corresponds to the fungal infection of the treated plants in % and • β corresponds to the fungal infection of the untreated (control) plants in %
An efficacy of 0 means that the infection level of the treated plants corresponds to that of the untreated control plants; an efficacy of 100 means that the treated plants were not infected.
The expected efficacies of mixtures of active compounds were determined using Colby's formula (Colby, S. R. “Calculating synergistic and antagonistic responses of herbicide combinations”, Weeds, 15, 20-22, 1967) and compared with the observed efficacies.
E=x+y−x·y/100 • E expected efficacy, expressed in % of the untreated control, when the using the mixture of the active compounds A and B at the concentrations a and b • x efficacy, expressed in % of the untreated control, when using the active compound A at the concentration a • y efficacy, expressed in % of the untreated control, when using the active compound B at the concentration b

| SMILES | Efficacy in % of the untreated control (0.25 ppm in the spray liquor) [%] | Efficacy in % of the untreated control (1 ppm in the spray liquor) [%] | Efficacy in % of the untreated control (4 ppm in the spray liquor) [%] |
| --- | --- | --- | --- |
| CC1CCN(c2c(-c3c(F)cc(F)cc3F)c(Cl)nc3ncnn23)CC1 [I, 5-chloro-7-(4-methylpiperidin-1-yl)-6-(2,4,6-trifluorophenyl)[1,2,4]triazolo[1,5-a]pyrimidine] | 0 | 0 | 33 |
| CC(C)CC(C)c1sccc1NC(=O)c1cn(C)nc1C(F)(F)F (stereo not drawn) [IIA.11, penthiopyrad] | 0 | 33 | 56 |
